Source: article PMC12314070 (Nature Communications, 2025)
≈ marks a conversion by molar mass, not a printed value. Positions of bridges follow the written chain, without caps; N, C: chain ends. Non-standard residues stand in square brackets, D forms with d. Residues, ends and D or L forms follow the SMILES beside them. *: point of attachment. X1 = CC[C@H](C)CCCCC(=O)*; Dab = NCC[C@H](N)C(=O)O

How the values were obtained:
[1] = test system: A. baumannii BNCC194496-mcr-1; test: MIC assay; assay type: cell-based; settings: Acinetobacter baumannii, BNCC194496MCR1
A. baumannii BNCC 194496 = test: MIC assay; assay type: cell-based, Acinetobacter baumannii; settings: Table 1, Cip^R
E. Coli MG1655-mcr-1 = test: Neutropenic thigh infection model; assay type: in vivo, mice; settings: colistin resistant E. coli thigh infection, 20 mg/kg once daily s.c.
S. aureus USA 300 = test: MIC assay; assay type: cell-based, Staphylococcus aureus; settings: Table 1, Met^R, MDR
S. aureus BNCC 186335 = test: MIC assay; assay type: cell-based; settings: Staphylococcus aureus, BNCC186335, Table 1, Azm^R, Pen^R

CO/N=C(\C(=O)N[C@@H]1C(=O)N2C(C(=O)O)=CCS[C@H]12)c1csc(N)n1 [Ceftizoxime]
MIC [1]: 4 µg/mL (≈ 10.4 µM) | MIC (A. baumannii BNCC 194496): 4 µg/mL (≈ 10.4 µM)

CC[C@H](C)CCCCC(=O)N[C@@H](CCN)C(=O)N[C@H](C(=O)N[C@@H](CCN)C(=O)N[C@H]1CCNC(=O)[C@H]([C@@H](C)O)NC(=O)[C@H](CCN)NC(=O)[C@H](CCN)NC(=O)[C@H](CC(C)C)NC(=O)[C@@H](CC(C)C)NC(=O)[C@H](CCN)NC1=O)[C@@H](C)O [Colistin] (X1-[Dab]T[Dab][Dab][Dab][dL]L[Dab][Dab]T; lactam 4-C; N-terminus assumed)
reduction of bacterial burden (E. Coli MG1655-mcr-1): no activity

COc1cccc(OC)c1C(=O)N[C@@H]1C(=O)N2[C@@H]1SC(C)(C)[C@@H]2C(=O)O [Methicillin]
MIC (S. aureus USA 300): >64 µg/mL

CN[C@H](CC(C)C)C(=O)N[C@H]1C(=O)N[C@@H](CC(N)=O)C(=O)N[C@H]2C(=O)N[C@H]3C(=O)N[C@H](C(=O)N[C@H](C(=O)O)c4cc(O)cc(O)c4-c4cc3ccc4O)[C@H](O)c3ccc(c(Cl)c3)Oc3cc2cc(c3O[C@@H]2O[C@H](CO)[C@@H](O)[C@H](O)[C@H]2O[C@H]2C[C@](C)(N)[C@H](O)[C@H](C)O2)Oc2ccc(cc2Cl)[C@H]1O [Vancomycin]
MIC (S. aureus USA 300): 1 µg/mL (≈ 0.69 µM) | MIC (S. aureus BNCC 186335): 0.5 µg/mL (≈ 0.345 µM)
